Source: PubChem BioAssay (NCI)
“And” between values parts separate entries of the source, which are not always exact repeats. Equal values may be shown once.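 Each compound was tested at five concentrations against cells in 96-well plates for 48 hours. GI50 is the concentration that inhibits growth by half. TGI: total growth inhibition.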

Columns and labels:
Experiment in all cases: NCI tumour cell line growth inhibition, 48 h
SK-MEL-2 melanoma = tested on: SK-MEL-2 melanoma
SK-MEL-28 melanoma = tested on: SK-MEL-28 melanoma
HL-60(TB) leukemia = tested on: HL-60(TB) leukemia
U251 CNS = tested on: U251 CNS
UACC-62 melanoma = tested on: UACC-62 melanoma
K-562 leukemia = tested on: K-562 leukemia
MDA-MB-231 breast = tested on: MDA-MB-231 breast
T-47D breast = tested on: T-47D breast
LOX IMVI melanoma = tested on: LOX IMVI melanoma
NCI-H522 lung = tested on: NCI-H522 lung

Structure (SMILES) | TGI (SK-MEL-2 melanoma) | TGI (SK-MEL-28 melanoma) | TGI (HL-60(TB) leukemia) | TGI (U251 CNS) | TGI (UACC-62 melanoma) | TGI (K-562 leukemia) | TGI (MDA-MB-231 breast) | TGI (T-47D breast) | TGI (LOX IMVI melanoma) | GI50 (NCI-H522 lung) | TGI (NCI-H522 lung) | GI50 (SK-MEL-2 melanoma) | GI50 (SK-MEL-28 melanoma) | GI50 (HL-60(TB) leukemia) | GI50 (U251 CNS) | GI50 (UACC-62 melanoma) | GI50 (K-562 leukemia) | GI50 (MDA-MB-231 breast) | GI50 (T-47D breast)
NC(N)=NCCCC(NC(=O)OCCCCn1ccc(N)nc1=O)C(=O)O (stereo unspecified) | > 100 µM | > 100 µM | > 100 µM | > 100 µM | > 100 µM | > 100 µM | > 100 µM | > 100 µM | > 100 µM | – | – | – | – | – | – | – | – | – | –
CC1=NN(c2nc(N)nc(CF)n2)C(C)(C)C1 | > 100 µM | > 100 µM | > 100 µM | > 100 µM | > 100 µM | > 100 µM | > 100 µM | > 100 µM | > 100 µM | – | – | – | – | – | – | – | – | – | –
COc1ccc(-c2nn(-c3ccc(NC(=O)Nc4ccc(Cl)c(C(F)(F)F)c4)cc3)cc2-c2ccncc2)cc1Cl | 3.75 µM | 3.64 µM | 5.75 µM | 2.59 µM | 2.75 µM | 8.55 µM | 2.67 µM | 7.73 µM | – | 1270 nM | 3.95 µM | 1740 nM | 1670 nM | 2130 nM | 928 nM | 1330 nM | 1250 nM | 1200 nM | 2720 nM
NC(CSSCC(N)Cc1ccccc1)Cc1ccccc1 (stereo unspecified) | 88.7 µM | > 100 µM | 74.4 µM | > 100 µM | 44.9 µM | > 100 µM | – | – | 84.4 µM | – | 30.9 µM | – | – | – | – | – | – | – | –
C=C1CN(C2=NCCO2)C1 | > 100 µM | > 100 µM | > 100 µM | – | > 100 µM | > 100 µM | > 100 µM | > 100 µM | > 100 µM | – | – | – | – | – | – | – | – | – | –
O=C(CSc1nc2ccccc2c(=O)n1-c1ccccc1)N=Nc1c(O)[nH]c2ccc(F)cc12 | 3.59 µM | 4.54 µM | 3.96 µM | > 100 µM | 4.82 µM | 3.35 µM | 4.79 µM | 3.97 µM | > 100 µM | – | – | – | – | – | – | – | – | – | –
COC(=O)C(NC(=O)c1ccccc1)C(c1ccc(Cl)cc1)P(=O)(OC)OC (stereo unspecified) | > 100 µM | > 100 µM | > 100 µM | > 100 µM | > 100 µM | > 100 µM | – | – | > 100 µM | – | > 100 µM | – | – | – | – | – | – | – | –
S=c1[nH]c2ccc(I)cc2c(=S)n1Cc1ccccc1 | 18 µM | > 100 µM | 5.96 µM | 12.9 µM | – | 14.6 µM | 20.4 µM | 5.5 µM | 16 µM | – | 16.5 µM | – | – | – | – | – | – | – | –
CCOc1ccc2c(c1)c(=O)c1c(NCCN(CC)CC)ccc3nnn2c31 | > 100 µM | > 55 µM | – | > 58.2 µM | > 100 µM | > 66.2 µM | 58.5 µM | > 100 µM | 32 µM | – | 27.8 µM | – | – | – | – | – | – | – | –
CCC[C@@H]1C(=O)N=C(N)N1C(=O)OCc1ccccc1 | > 100 µM | > 100 µM | > 100 µM | > 100 µM | > 100 µM | > 100 µM | > 100 µM | – | > 100 µM | – | > 100 µM | – | – | – | – | – | – | – | –
Cc1ccc(-n2cc([Si](C)(C)C)nn2)s1 | > 100 µM | > 100 µM | – | > 100 µM | > 100 µM | > 100 µM | > 100 µM | > 100 µM | > 100 µM | – | > 100 µM | – | – | – | – | – | – | – | –
C=CC(C)(C)C(=C)C(=O)Nc1ccccc1I | > 100 µM | > 100 µM | – | > 100 µM | > 100 µM | > 100 µM | > 100 µM | > 100 µM | > 100 µM | – | – | – | – | – | – | – | – | – | –
C=C(c1ccccc1)c1ccccc1-c1cc(-c2ccccc2)cc(-c2ccccc2)n1 | – | > 100 µM | > 100 µM | > 100 µM | > 100 µM | > 100 µM | > 100 µM | 61.3 µM | > 100 µM | – | > 100 µM | – | – | – | – | – | – | – | –
O=c1[nH]c(=S)c2cc3c(=S)[nH]c(=O)n(CCO)c3nc2n1CCO | > 100 µM | > 100 µM | – | > 100 µM | – | > 100 µM | > 100 µM | > 100 µM | > 100 µM | – | > 100 µM | – | – | – | – | – | – | – | –
O=c1c2ccccc2nc(N/N=C/c2ccccc2O)n1-c1ccccc1 | > 100 µM | > 100 µM | 8.07 µM | > 100 µM | 7.1 µM | > 100 µM | > 100 µM | – | > 100 µM | – | 74.7 µM | – | – | – | – | – | – | – | –
Cn1c(O)c(C=Nc2ccccc2Cl)c(=O)n(C)c1=O | 41.1 µM | – | – | > 100 µM | > 100 µM | > 100 µM | > 100 µM | 65.5 µM | 32.2 µM | – | > 100 µM | – | – | – | – | – | – | – | –
COC1OC2=CCC3C(=O)NC(=O)C3C2[C@H](OCc2ccccc2)C1OCc1ccccc1 (stereo partly specified) | 16.4 µM | 3.3 µM | – | 33.3 µM | 6 µM | – | – | – | 3.22 µM | – | 3.18 µM | – | – | – | – | – | – | – | –
C/C=C(/C)C(=O)O[C@H]1[C@H](O)CC(c2ccc3c(c2O)C(O)=C2C(=O)C4(OC)C(O)=C(C(N)=O)C(=O)[C@H](CC(=O)c5ccccc5O)C4CC2[C@@]3(C)OC)O[C@@H]1C (stereo partly specified) | 0.0696 µM | 2.56 µM and 2.45 µM | – | 0.148 µM and 0.117 µM | 0.236 µM | 10.7 µM | 1.35 µM | 8.06 µM | 0.132 µM | – | 1.21 µM and 1.83 µM | – | 1060 nM | – | – | – | – | – | –
CCOC(=O)N1CCC(=C2c3ccc(Cl)cc3CCc3cccnc32)CC1 | 27.4 µM | 20.3 µM | 22.9 µM | – | 18.9 µM | 49.7 µM | 42.5 µM | 35 µM | 74.6 µM | – | – | – | – | – | – | – | – | – | –
COc1ccc(C2=NN=C3C(c4ccccc4)=Nc4ccccc4N3C2)cc1 | > 100 µM | > 100 µM | 38.5 µM | > 100 µM | > 100 µM | > 100 µM | > 100 µM | – | > 100 µM | – | – | – | – | – | – | – | – | – | –
CCCC(=O)[O-].N.N.N.N.N.[Co+3].[O-][Cl+3]([O-])([O-])[O-] | > 100 µM | > 100 µM | – | > 100 µM | > 100 µM | > 100 µM | – | – | > 100 µM | – | > 100 µM | – | – | – | – | – | – | – | –
COc1ccc(Sc2ccccc2N)cc1 | > 100 µM | 77.3 µM | 60.9 µM | 49.8 µM | > 100 µM | > 100 µM | – | – | > 100 µM | – | – | – | – | – | – | – | – | – | –
Oc1ccc(Cl)cc1C1=NC(/N=C\c2ccccc2)=NC(c2ccccc2)C1 (stereo unspecified) | > 100 µM | > 100 µM | – | > 100 µM | > 100 µM | > 100 µM | > 100 µM | > 100 µM | – | – | > 100 µM | – | – | – | – | – | – | – | –
